Results on 26 compounds are retold here after patent US11345681B1, “Inhibitors of fibroblast growth factor receptor kinases” (Kinnate Biopharma Inc., priority 2020, dated 2022).

As usually defined, the IC50 is the midpoint of a concentration-inhibition curve.

Each structure is given as a SMILES string.

For one test, the target named is Wild type FGFR2 (Homo sapiens (Human), UniProt P21802). As to the kind of experiment: FGFR2 kinase assay (fluorescence-based microfluidic mobility shift assay). The format is biochemical.
Wild type FGFR2, sequence (P21802 22-821): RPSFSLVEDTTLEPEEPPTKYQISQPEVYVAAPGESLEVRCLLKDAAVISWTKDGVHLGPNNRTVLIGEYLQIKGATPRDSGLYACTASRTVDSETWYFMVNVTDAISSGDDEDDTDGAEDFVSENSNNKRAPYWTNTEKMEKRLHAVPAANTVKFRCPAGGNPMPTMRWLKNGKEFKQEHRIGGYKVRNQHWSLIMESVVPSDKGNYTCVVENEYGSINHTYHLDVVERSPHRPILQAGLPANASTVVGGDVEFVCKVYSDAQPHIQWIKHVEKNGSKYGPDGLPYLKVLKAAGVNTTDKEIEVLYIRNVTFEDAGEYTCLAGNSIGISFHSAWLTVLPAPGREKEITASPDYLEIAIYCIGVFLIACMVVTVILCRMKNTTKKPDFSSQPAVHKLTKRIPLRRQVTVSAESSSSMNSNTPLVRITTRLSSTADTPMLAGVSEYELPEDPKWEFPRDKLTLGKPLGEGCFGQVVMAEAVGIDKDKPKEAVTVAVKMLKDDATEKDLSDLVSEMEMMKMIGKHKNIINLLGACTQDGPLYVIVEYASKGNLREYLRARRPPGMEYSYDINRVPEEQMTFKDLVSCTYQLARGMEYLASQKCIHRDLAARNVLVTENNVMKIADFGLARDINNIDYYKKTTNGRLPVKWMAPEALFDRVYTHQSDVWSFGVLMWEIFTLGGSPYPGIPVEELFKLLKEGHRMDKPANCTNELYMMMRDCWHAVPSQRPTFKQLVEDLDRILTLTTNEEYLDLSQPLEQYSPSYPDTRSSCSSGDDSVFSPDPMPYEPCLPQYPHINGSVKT
Details: not given
Take `C#CC(=O)N1C[C@@H](n2nc(C#Cc3cc4ncn(C5CC5)c4cc3F)c(C(N)=O)c2NC)C[C@@H]1CO` [Example 198, 3-[2-(1-Cyclopropyl-6-fluoro-1,3-benzodiazol-5-yl)ethynyl]-1-[(3S,5R)-5-(hydroxymethyl)-1-(prop-2-ynoyl)pyrrolidin-3-yl]-5-(methylamino)pyrazole-4-carboxamide]: the IC50 is below 100 nM.

The test is the same for the next values; noted with them: wild type FGFR2 0.06 nM, 100 μM ATP, 80 minutes at room temperature; class symbols.
`C=CC(=O)N1C[C@@H](n2nc(C#Cc3cc4ncn(C5CC5)c4cc3F)c(C(N)=O)c2NC)C[C@@H]1C` [Example 169, 1-((3S,5S)-1-Acryloyl-5-methylpynolidin-3-yl)-3-((1-cyclopropyl-6-fluoro-1H-benzo[d]imidazol-5-yl)ethynyl)-5-(methylamino)-1H-pyrazole-4-carboxamide]: the IC50 is at most 100 nM.
Still for that read-out and setting: in the case of `C=CC(=O)N1C[C@@H](n2nc(C#Cc3cc4ncn(C5CC5)c4cc3F)c(C(N)=O)c2NC)C[C@@H]1C(F)F` [Example 170, 3-[2-(1-Cyclopropyl-6-fluoro-1,3-benzodiazol-5-yl)ethynyl]-1-[(3S,5R)-5-(difluoromethyl)-1-(prop-2-enoyl)pyrrolidin-3-yl]-5-(methylamino)pyrazole-4-carboxamide] it was at most 100 nM.
Regarding `C=CC(=O)N1CC[C@H](n2nc(C#Cc3cc4ncn(C5CC5)c4c(F)c3F)c(C(N)=O)c2NC)C1` [Example 171], the IC50 is at most 100 nM.
On the same count and under the same terms, in the case of `C=C(F)C(=O)N1CC(n2nc(C#Cc3cc4ncn(C5CC5)c4cc3F)c(C(N)=O)c2NC)C1` [Example 172, 3-((1-Cyclopropyl-6-fluoro-1H-benzo[d]imidazol-5-yl)ethynyl)-1-(1-(2-fluoroacryloyl)azetidin-3-yl)-5-(methylamino)-1H-pyrazole-4-carboxamide] it was at most 100 nM.
As to `C=C(F)C(=O)N1CC(n2nc(C#Cc3c(F)cc4c(ncn4C4CC4)c3F)c(C(N)=O)c2NC)C1` [Example 173, 3-((1-Cyclopropyl-4,6-difluoro-1H-benzo[d]imidazol-5-yl)ethynyl)-1-(1-(2-fluoroacryloyl)azetidin-3-yl)-5-(methylamino)-1H-pyrazole-4-carboxamide], the half-inhibitory concentration (IC50) is at most 100 nM.
Same read-out and setting: in the case of `C=CC(=O)N1CC(n2nc(C#Cc3cc4ncn(C5CC5)c4cc3F)c(C(N)=O)c2NC)C1` [Example 175, 3-[2-(1-cyclopropyl-6-fluoro-1,3-benzodiazol-5-yl)ethynyl]-5-(methylamino)-1-[1-(prop-2-enoyl)azetidin-3-yl]pyrazole-4-carboxamide] it was at most 100 nM; in that of `C=CC(=O)N1C[C@@H](n2nc(C#Cc3cc4ncn(C5CC5)c4cc3F)c(C(N)=O)c2NC)C[C@@H]1CF` [Example 176, 1-((3S,5R)-1-acryloyl-5-(fluoromethyl)pyrrolidin-3-yl)-3-((1-cyclopropyl-6-fluoro-1H-benzo[d]imidazol-5-yl)ethynyl)-5-(methylamino)-1H-pyrazole-4-carboxamide], at most 100 nM.
On the same count and under the same terms, in the case of `C=CC(=O)N1C[C@@H](n2nc(C#Cc3c(F)cc4[nH]cnc4c3F)c(C(N)=O)c2NC)C[C@@H]1COC` [Example 177, 1-((3S,5R)-1-acryloyl-5-(methoxymethyl)pyrrolidin-3-yl)-3-((4,6-difluoro-1H-benzo[d]imidazol-5-yl)ethynyl)-5-(methylamino)-1H-pyrazole-4-carboxamide] it was at most 100 nM; in that of `C=CC(=O)N1C[C@@H](n2nc(C#Cc3ccc4c(c3)ncn4C3CC3)c(C(N)=O)c2NC)C[C@@H]1CF` [Example 178, 1-((3S,5R)-1-Acryloyl-5-(fluoromethyl)pyrrolidin-3-yl)-3-((1-cyclopropyl-1H-benzo[d]imidazol-5-yl)ethynyl)-5-(methylamino)-1H-pyrazole-4-carboxamide], at most 100 nM; in that of `C=CC(=O)N1C[C@@H](n2nc(C#Cc3c(F)cc4c(ncn4C4CC4)c3F)c(C(N)=O)c2NC)C[C@@H]1CF` [Example 179, 1-((3S,5R)-1-Acryloyl-5-(fluoromethyl)pyrrolidin-3-yl)-3-((1-cyclopropyl-4,6-difluoro-1H-benzo[d]imidazol-5-yl)ethynyl)-5-(methylamino)-1H-pyrazole-4-carboxamide], at most 100 nM.
Still for that read-out and setting: in the case of `C=CC(=O)N1C[C@@H](n2nc(C#Cc3cc4ncn(C5CC5)c4cc3F)c(C(N)=O)c2NC)C[C@H]1CF` [Example 180, 3-[2-(1-Cyclopropyl-6-fluoro-1,3-benzodiazol-5-yl)ethynyl]-1-[(3S,5S)-5-(fluoromethyl)-1-(prop-2-enoyl)pyrrolidin-3-yl]-5-(methylamino)pyrazole-4-carboxamide] it was at most 100 nM; in that of `C=CC(=O)N1C[C@@H](n2nc(C#Cc3c(F)cc4c(ncn4C4CC4)c3F)c(C(N)=O)c2NC)C[C@H]1CF` [Example 181, 3-[2-(1-Cyclopropyl-4,6-difluoro-1,3-benzodiazol-5-yl)ethynyl]-1-[(3S,5S)-5-(fluoromethyl)-1-(prop-2-enoyl)pyrrolidin-3-yl]-5-(methylamino)pyrazole-4-carboxamide], at most 100 nM; in that of `C#CC(=O)N1C[C@@H](n2nc(C#Cc3cc4ncn(C5CC5)c4cc3F)c(C(N)=O)c2NC)C[C@@H]1COC` [Example 182, 3-((1-Cyclopropyl-6-fluoro-1H-benzo[d]imidazol-5-yl)ethynyl)-1-((3S,5R)-5-(methoxymethyl)-1-propioloylpyrrolidin-3-yl)-5-(methylamino)-1H-pyrazole-4-carboxamide], at most 100 nM.
`CC#CC(=O)N1C[C@@H](n2nc(C#Cc3cc4ncn(C5CC5)c4cc3F)c(C(N)=O)c2NC)C[C@@H]1COC` [Example 183, 1-((3S,5R)-1-(But-2-ynoyl)-5-(methoxymethyl)pyrrolidin-3-yl)-3-((1-cyclopropyl-6-fluoro-1H-benzo[d]imidazol-5-yl)ethynyl)-5-(methylamino)-1H-pyrazole-4-carboxamide]: the IC50 was at most 100 nM.
With `C#CC(=O)N1C[C@@H](n2nc(C#Cc3c(F)cc4c(ncn4C4CC4)c3F)c(C(N)=O)c2NC)C[C@@H]1COC` [Example 184, 3-[2-(1-cyclopropyl-4,6-difluoro-1,3-benzodiazol-5-yl)ethynyl]-1-[(3S,5R)-5-(methoxymethyl)-1-(prop-2-ynoyl)pyrrolidin-3-yl]-5-(methylamino)pyrazole-4-carboxamide], the IC50 was at most 100 nM.
As for `CC#CC(=O)N1C[C@@H](n2nc(C#Cc3c(F)cc4c(ncn4C4CC4)c3F)c(C(N)=O)c2NC)C[C@@H]1COC` [Example 185, 1-[(3S,5R)-1-(But-2-ynoyl)-5-(methoxymethyl)pyrrolidin-3-yl]-3-[2-(1-cyclopropyl-4,6-difluoro-1,3-benzodiazol-5-yl)ethynyl]-5-(methylamino)pyrazole-4-carboxamide], the IC50 was at most 100 nM.
The same measure, in the same setting: in the case of `C=CC(=O)N1CC[C@H](n2nc(C#Cc3c(F)cc4c(ncn4C4CC4)c3F)c(C(N)=O)c2NC)C1` [Example 186, 3-[2-(1-Cyclopropyl-4,6-difluoro-1,3-benzodiazol-5-yl)ethynyl]-5-(methylamino)-1-[(3S)-1-(prop-2-enoyl)pyrrolidin-3-yl]pyrazole-4-carboxamide] it was at most 100 nM.
Still for that read-out and setting: in the case of `C=CC(=O)N1C[C@@H](n2nc(C#Cc3c(F)cc4c(ncn4C4CC4)c3F)c(C(N)=O)c2N)C[C@@H]1COC` [Example 189, 5-amino-3-[2-(1-cyclopropyl-4,6-difluoro-1,3-benzodiazol-5-yl)ethynyl]-1-[(3S,5R)-5-(methoxymethyl)-1-(prop-2-enoyl)pyrrolidin-3-yl]pyrazole-4-carboxamide] it was at most 100 nM.
Same read-out and setting: in the case of `C=CC(=O)N1CC[C@H](n2nc(C#Cc3c(F)cc4c(ncn4C4CC4)c3F)c(C(N)=O)c2N)C1` [Example 190, 5-Amino-3-[2-(1-cyclopropyl-4,6-difluoro-1,3-benzodiazol-5-yl)ethynyl]-1-[(3S)-1-(prop-2-enoyl)pyrrolidin-3-yl]pyrazole-4-carboxamide] it was at most 100 nM; in that of `C=CC(=O)N1C[C@@H](n2nc(C#Cc3cc4ncn(CC)c4cc3Cl)c(C(N)=O)c2NC)C[C@@H]1CO` [Example 191, 3-[2-(6-Chloro-1-ethyl-1,3-benzodiazol-5-yl)ethynyl]-1-[(3S,5R)-5-(hydroxymethyl)-1-(prop-2-enoyl)pyrrolidin-3-yl]-5-(methylamino)pyrazole-4-carboxamide], at most 100 nM; in that of `C=CC(=O)N1CC(n2nc(C#Cc3cc4ncn(CC)c4cc3Cl)c(C(N)=O)c2NC)C1` [Example 192, 3-[2-(6-chloro-1-ethyl-1,3-benzodiazol-5-yl)ethynyl]-5-(methylamino)-1-[1-(prop-2-enoyl)azetidin-3-yl]pyrazole-4-carboxamide], at most 100 nM.
For the compound `C=CC(=O)N1CC(n2nc(C#Cc3c(F)cc4c(ncn4C4CC4)c3F)c(C(N)=O)c2NC)C1` [Example 193, 3-[2-(1-Cyclopropyl-4,6-difluoro-1,3-benzodiazol-5-yl)ethynyl]-5-(methylamino)-1-[1-(prop-2-enoyl)azetidin-3-yl]pyrazole-4-carboxamide], the IC50 was at most 100 nM.
For `C=CC(=O)N1C[C@@H](n2nc(C#Cc3cc4ncn(CC)c4cc3Cl)c(C(N)=O)c2N)C[C@@H]1CO` [Example 194, 5-Amino-3-[2-(6-chloro-1-ethyl-1,3-benzodiazol-5-yl)ethynyl]-1-[(3S,5R)-5-(hydroxymethyl)-1-(prop-2-enoyl)pyrrolidin-3-yl]pyrazole-4-carboxamide], the IC50 is at most 100 nM.
Still for that read-out and setting: in the case of `C=CC(=O)N1C[C@@H](n2nc(C#Cc3cc4ncn(CC)c4cc3Cl)c(C(N)=O)c2N)C[C@@H]1COC` [Example 196, 5-Amino-3-[2-(6-chloro-1-ethyl-1,3-benzodiazol-5-yl)ethynyl]-1-[(3S,5R)-5-(methoxymethyl)-1-(prop-2-enoyl)pyrrolidin-3-yl]pyrazole-4-carboxamide] it was at most 100 nM.
Same read-out and setting: then `C=CC(=O)N1C[C@@H](n2nc(C#Cc3cc4ncn(C5CC5)c4cc3Cl)c(C(N)=O)c2N)C[C@@H]1CO` [Example 199, 5-Amino-3-[2-(6-chloro-1-cyclopropyl-1,3-benzodiazol-5-yl)ethynyl]-1-[(3S,5R)-5-(hydroxymethyl)-1-(prop-2-enoyl)pyrrolidin-3-yl]pyrazole-4-carboxamide], with at most 100 nM.
